Measured values taken from patent US9062124B2, “GIP-based mixed agonists for treatment of metabolic disorders and obesity” (priority 2008, dated 2015).
Where a SMILES comes first, the peptide text is derived from it. Bridges are numbered along the chain shown (N, C = ends). [ ]: non-standard residue; d: D form. Aib = CC(C)(N)C(=O)O

Tests used:
Type in all cases: cell-based
glucagon receptor = molecular target: T1, glucagon receptor (Homo sapiens, UniProt P47871); experiment: cAMP synthesis functional assay (firefly luciferase reporter in HEK293 cells), glucagon receptor; conditions: Table 1; for Glucagon Receptor relative activity: relative to the native hormone of the indicated receptor
T1 construct: expressed in transfected cells; host or cells: HEK293
T1 sequence (P47871 26-477): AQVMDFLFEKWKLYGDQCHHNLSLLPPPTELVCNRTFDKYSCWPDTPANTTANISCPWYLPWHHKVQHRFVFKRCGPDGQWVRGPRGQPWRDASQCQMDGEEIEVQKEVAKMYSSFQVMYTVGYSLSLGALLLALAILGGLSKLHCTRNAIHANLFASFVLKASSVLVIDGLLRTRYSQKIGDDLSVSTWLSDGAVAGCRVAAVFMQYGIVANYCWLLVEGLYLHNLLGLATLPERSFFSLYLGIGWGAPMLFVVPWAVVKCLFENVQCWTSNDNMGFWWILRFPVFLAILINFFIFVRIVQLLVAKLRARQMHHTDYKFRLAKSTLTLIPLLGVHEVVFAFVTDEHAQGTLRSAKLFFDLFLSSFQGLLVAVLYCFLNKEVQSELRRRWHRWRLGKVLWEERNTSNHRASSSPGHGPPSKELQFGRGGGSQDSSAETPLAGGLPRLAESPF

GLP-1 receptor = molecular target: T2, GLP-1 receptor (Homo sapiens, UniProt P43220); experiment: cAMP synthesis functional assay (firefly luciferase reporter in HEK293 cells), GLP-1 receptor; conditions: Table 1; for GLP-1 Receptor relative activity: relative to the native hormone of the indicated receptor
T2 construct: expressed in transfected cells; host or cells: HEK293
T2 sequence (P43220 24-463, species assumed): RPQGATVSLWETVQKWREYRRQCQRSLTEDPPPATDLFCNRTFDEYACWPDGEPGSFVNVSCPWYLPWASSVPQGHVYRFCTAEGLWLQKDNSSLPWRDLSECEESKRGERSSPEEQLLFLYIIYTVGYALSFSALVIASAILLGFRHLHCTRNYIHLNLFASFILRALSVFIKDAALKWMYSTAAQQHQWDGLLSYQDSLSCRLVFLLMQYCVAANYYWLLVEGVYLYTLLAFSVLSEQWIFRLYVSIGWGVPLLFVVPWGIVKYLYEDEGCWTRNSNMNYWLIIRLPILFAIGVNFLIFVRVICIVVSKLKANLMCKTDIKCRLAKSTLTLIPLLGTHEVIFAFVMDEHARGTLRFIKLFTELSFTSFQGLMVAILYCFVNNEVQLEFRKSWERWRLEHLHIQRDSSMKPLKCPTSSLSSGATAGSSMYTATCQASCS

[1] = system: glucagon receptor, GLP-1 receptor or GIP receptor; experiment: Agonist profile across receptors assigned from the cAMP reporter assay data; conditions: assigned from the in vitro EC50 data of Tables 1-4
GIP receptor = molecular target: T3, GIP receptor (Homo sapiens, UniProt P48546); experiment: cAMP synthesis functional assay (firefly luciferase reporter in HEK293 cells), GIP receptor; conditions: Table 1; for GIP Receptor relative activity: relative to the native hormone of the indicated receptor
T3 construct: expressed in transfected cells; host or cells: HEK293
T3 sequence (P48546 22-466): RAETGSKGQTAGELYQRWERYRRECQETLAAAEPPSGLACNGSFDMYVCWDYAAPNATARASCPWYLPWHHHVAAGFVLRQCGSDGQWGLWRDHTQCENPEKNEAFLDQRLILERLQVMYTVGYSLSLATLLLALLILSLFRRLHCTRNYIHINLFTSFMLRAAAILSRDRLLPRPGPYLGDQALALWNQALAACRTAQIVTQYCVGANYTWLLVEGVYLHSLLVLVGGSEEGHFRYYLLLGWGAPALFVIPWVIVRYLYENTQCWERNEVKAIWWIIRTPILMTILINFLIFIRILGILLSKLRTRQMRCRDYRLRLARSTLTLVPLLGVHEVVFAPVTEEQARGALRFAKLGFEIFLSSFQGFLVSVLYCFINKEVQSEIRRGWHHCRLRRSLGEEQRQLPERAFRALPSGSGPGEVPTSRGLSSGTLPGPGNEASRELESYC

SMILES	Glucagon Receptor relative activity (glucagon receptor) [%]	GLP-1 Receptor relative activity (GLP-1 receptor) [%]	receptor activity profile (glucagon / GLP-1 / GIP agonism) [1]	GIP Receptor relative activity (GIP receptor) [%]	EC50 (glucagon receptor; Glucagon Receptor EC50, nM) [nM]	EC50 (GLP-1 receptor; GLP-1 Receptor EC50, nM) [nM]	EC50 (GIP receptor; GIP Receptor EC50, nM) [nM]
CC[C@H](C)[C@H](NC(=O)[C@H](CO)NC(=O)[C@H](Cc1ccc(O)cc1)NC(=O)[C@H](CC(=O)O)NC(=O)[C@H](CO)NC(=O)[C@@H](NC(=O)[C@H](Cc1ccccc1)NC(=O)[C@@H](NC(=O)CNC(=O)[C@H](CCC(N)=O)NC(=O)[C@@H](C)NC(=O)[C@@H](N)Cc1ccc(O)cc1)[C@@H](C)O)[C@@H](C)O)C(=O)N[C@@H](Cc1ccc(O)cc1)C(=O)N[C@@H](CC(C)C)C(=O)N[C@@H](CC(=O)O)C(=O)N[C@H]1CCC(=O)NCCCC[C@@H](C(=O)N[C@@H](CCC(=O)O)C(=O)N[C@@H](Cc2ccccc2)C(=O)N[C@H](C(=O)N[C@@H](CC(N)=O)C(=O)N[C@@H](Cc2c[nH]c3ccccc23)C(=O)N[C@@H](CC(C)C)C(=O)N[C@@H](CC(C)C)C(=O)N[C@@H](C)C(=O)NCC(=O)NCC(=O)N2CCC[C@H]2C(=O)N[C@@H](CO)C(=O)N[C@@H](CO)C(=O)NCC(=O)N[C@@H](C)C(=O)N2CCC[C@H]2C(=O)N2CCC[C@H]2C(=O)N2CCC[C@H]2C(=O)N[C@@H](CO)C(=O)N[C@@H](CS)C(N)=O)C(C)C)NC(=O)[C@H](C)NC(=O)[C@H](C)NC(=O)[C@H](CCC(N)=O)NC1=O [mt-166] (H-Y[dA]QGTFTSDYSIYLDEQAAKEFVNWLLAGGPSSGAPPPSC-NH2; lactam 16-20; N-terminus assumed)	9.83	26.87	exemplary GLP-1/GIP/glucagon triagonist peptides	5.94	–	–	–
CC[C@H](C)[C@H](NC(=O)[C@H](CO)NC(=O)[C@H](Cc1ccc(O)cc1)NC(=O)[C@H](CC(=O)O)NC(=O)[C@H](CO)NC(=O)[C@@H](NC(=O)[C@H](Cc1ccccc1)NC(=O)[C@@H](NC(=O)CNC(=O)[C@H](CCC(N)=O)NC(=O)C(C)(C)NC(=O)[C@@H](N)Cc1ccc(O)cc1)[C@@H](C)O)[C@@H](C)O)C(=O)N[C@@H](Cc1ccc(O)cc1)C(=O)N[C@@H](CC(C)C)C(=O)N[C@@H](CC(=O)O)C(=O)N[C@H]1CCC(=O)NCCCC[C@@H](C(=O)N[C@@H](CCC(=O)O)C(=O)N[C@@H](Cc2ccccc2)C(=O)N[C@H](C(=O)N[C@@H](CS)C(=O)N[C@@H](Cc2c[nH]c3ccccc23)C(=O)N[C@@H](CC(C)C)C(=O)N[C@@H](CC(C)C)C(=O)N[C@@H](C)C(=O)NCC(N)=O)C(C)C)NC(=O)[C@H](C)NC(=O)[C@H](C)NC(=O)[C@H](CCC(N)=O)NC1=O [mt-169] (H-Y[Aib]QGTFTSDYSIYLDEQAAKEFVCWLLAG-NH2; lactam 16-20; N-terminus assumed)	51.26	54.39	exemplary GLP-1/GIP/glucagon triagonist peptides	14.79	–	–	–
CC[C@H](C)[C@H](NC(=O)[C@H](CO)NC(=O)[C@H](Cc1ccc(O)cc1)NC(=O)[C@H](CC(=O)O)NC(=O)[C@H](CO)NC(=O)[C@@H](NC(=O)[C@H](Cc1ccccc1)NC(=O)[C@@H](NC(=O)CNC(=O)[C@H](CCC(=O)O)NC(=O)C(C)(C)NC(=O)[C@@H](N)Cc1ccc(O)cc1)[C@@H](C)O)[C@@H](C)O)C(=O)N[C@@H](Cc1ccc(O)cc1)C(=O)N[C@@H](CC(C)C)C(=O)N[C@@H](CC(=O)O)C(=O)N[C@H]1CCC(=O)NCCCC[C@@H](C(=O)N[C@@H](CCC(=O)O)C(=O)N[C@@H](Cc2ccccc2)C(=O)N[C@H](C(=O)N[C@@H](CC(N)=O)C(=O)N[C@@H](Cc2c[nH]c3ccccc23)C(=O)N[C@@H](CC(C)C)C(=O)N[C@@H](CC(C)C)C(=O)N[C@@H](C)C(=O)NCC(=O)NCC(=O)N2CCC[C@H]2C(=O)N[C@@H](CO)C(=O)N[C@@H](CO)C(=O)NCC(=O)N[C@@H](C)C(=O)N2CCC[C@H]2C(=O)N2CCC[C@H]2C(=O)N2CCC[C@H]2C(=O)N[C@@H](CO)C(=O)N[C@@H](CS)C(N)=O)C(C)C)NC(=O)[C@H](C)NC(=O)[C@H](C)NC(=O)[C@H](CCC(N)=O)NC1=O [mt-174] (H-Y[Aib]EGTFTSDYSIYLDEQAAKEFVNWLLAGGPSSGAPPPSC-NH2; lactam 16-20; N-terminus assumed)	0.06	117.65	exemplary GLP-1/GIP co-agonist peptides	95.65	–	–	–
CC[C@H](C)[C@H](NC(=O)[C@H](CO)NC(=O)[C@H](Cc1ccc(O)cc1)NC(=O)[C@H](CC(=O)O)NC(=O)[C@H](CO)NC(=O)[C@@H](NC(=O)[C@H](Cc1ccccc1)NC(=O)[C@@H](NC(=O)CNC(=O)[C@H](CCC(N)=O)NC(=O)C(C)(C)NC(=O)[C@@H](N)Cc1ccc(O)cc1)[C@@H](C)O)[C@@H](C)CC)C(=O)N[C@@H](Cc1ccc(O)cc1)C(=O)N[C@@H](CC(C)C)C(=O)N[C@@H](CC(=O)O)C(=O)N[C@H]1CCC(=O)NCCCC[C@@H](C(=O)N[C@@H](CCC(=O)O)C(=O)N[C@@H](Cc2ccccc2)C(=O)N[C@H](C(=O)N[C@@H](CC(N)=O)C(=O)N[C@@H](Cc2c[nH]c3ccccc23)C(=O)N[C@@H](CC(C)C)C(=O)N[C@@H](CC(C)C)C(=O)N[C@@H](C)C(=O)NCC(=O)NCC(=O)N2CCC[C@H]2C(=O)N[C@@H](CO)C(=O)N[C@@H](CO)C(=O)NCC(=O)N[C@@H](C)C(=O)N2CCC[C@H]2C(=O)N2CCC[C@H]2C(=O)N2CCC[C@H]2C(=O)N[C@@H](CO)C(=O)N[C@@H](CS)C(N)=O)C(C)C)NC(=O)[C@H](C)NC(=O)[C@H](C)NC(=O)[C@H](CCC(N)=O)NC1=O [mt-176]	26.24	0.23	exemplary GIP/glucagon co-agonist peptides	40.00	–	–	–
CC[C@H](C)[C@H](NC(=O)[C@H](CO)NC(=O)[C@H](Cc1ccc(O)cc1)NC(=O)[C@H](CC(=O)O)NC(=O)[C@H](CO)NC(=O)[C@@H](NC(=O)[C@H](Cc1ccccc1)NC(=O)[C@@H](NC(=O)CNC(=O)[C@H](CCC(N)=O)NC(=O)C(C)(C)NC(=O)[C@@H](N)Cc1ccc(O)cc1)[C@@H](C)O)[C@@H](C)CC)C(=O)N[C@@H](Cc1ccc(O)cc1)C(=O)N[C@@H](CC(C)C)C(=O)N[C@@H](CC(=O)O)C(=O)N[C@H]1CCC(=O)NCCCC[C@@H](C(=O)N[C@@H](CCC(=O)O)C(=O)N[C@@H](Cc2ccccc2)C(=O)N[C@H](C(=O)N[C@@H](CS)C(=O)N[C@@H](Cc2c[nH]c3ccccc23)C(=O)N[C@@H](CC(C)C)C(=O)N[C@@H](CC(C)C)C(=O)N[C@@H](C)C(=O)NCC(N)=O)C(C)C)NC(=O)[C@H](C)NC(=O)[C@H](C)NC(=O)[C@H](CCC(N)=O)NC1=O [mt-177] (H-Y[Aib]QGTFISDYSIYLDEQAAKEFVCWLLAG-NH2; lactam 16-20; N-terminus assumed)	38.95	0.10	exemplary GIP/glucagon co-agonist peptides	19.30	0.095	21	0.114
CC[C@H](C)[C@H](NC(=O)[C@H](CO)NC(=O)[C@H](Cc1ccc(O)cc1)NC(=O)[C@H](CC(=O)O)NC(=O)[C@H](CO)NC(=O)[C@@H](NC(=O)[C@H](Cc1ccccc1)NC(=O)[C@@H](NC(=O)CNC(=O)[C@H](CCC(N)=O)NC(=O)C(C)(C)NC(=O)[C@@H](N)Cc1ccc(O)cc1)[C@@H](C)O)[C@@H](C)O)C(=O)N[C@@H](Cc1ccc(O)cc1)C(=O)N[C@@H](CC(C)C)C(=O)N[C@@H](CC(=O)O)C(=O)N[C@@H](CCC(=O)O)C(=O)N[C@@H](CCC(=O)O)C(=O)N[C@@H](C)C(=O)N[C@H](C(=O)N[C@@H](CCCNC(=N)N)C(=O)N[C@@H](CC(C)C)C(=O)N[C@@H](Cc1ccccc1)C(=O)N[C@H](C(=O)N[C@@H](CC(N)=O)C(=O)N[C@@H](Cc1c[nH]c2ccccc12)C(=O)N[C@@H](CC(C)C)C(=O)N[C@@H](CC(C)C)C(=O)N[C@@H](C)C(=O)NCC(=O)NCC(=O)N1CCC[C@H]1C(=O)N[C@@H](CO)C(=O)N[C@@H](CO)C(=O)NCC(=O)N[C@@H](C)C(=O)N1CCC[C@H]1C(=O)N1CCC[C@H]1C(=O)N1CCC[C@H]1C(=O)N[C@@H](CO)C(N)=O)C(C)C)C(C)C [mt-201] (H-Y[Aib]QGTFTSDYSIYLDEEAVRLFVNWLLAGGPSSGAPPPS-NH2; N-terminus assumed)	0.24	191.67	exemplary GLP-1/GIP co-agonist peptides	44.44	–	–	–
